The test system of test [1] is thrombocyte aggregation (U 46619-induced). The experiment in a line: TX antagonistic effect: inhibition of U 46619-induced thrombocyte aggregation in platelet-rich plasma (Born and Cross). Type of test: cell-based. Particulars: human platelet-rich plasma, citrate, aggregation followed over 5 minutes, read-out: Thromboxane Aggregation IC50. The text has this: 1. TX Antagonistic Effect of Human […]
The thrombocyte aggregation is investigated by the method of Born and Cross (J. Physiol. 168, 178 (1963) in platelet-rich plasma of healthy blood donors. To inhibit clotting, the blood is mixed with 3.2% citrate in a ratio by volume of 1:9.
To induce thrombocyte aggregation, U 46619 (Upjohn & Co., Kalamazoo, USA), which is a stable analog of the prostaglandin endoperoxide […], is used. U 46619 was characterized as a selective thromboxane mimetic (Coleman et al., Brit. J. Pharmacol. 68, 127 P., 1980).
The aggregation test is carried out in a 4-channel aggregometer (Profiler® of the Bio/Data Co., USA). The course of the aggregation is followed over a period of 5 minutes. At the end of the test, the degree of aggregation attained is printed out. These values, which are obtained in the presence of different concentrations of the substance to be tested, are used for the determination of the IC50 for the TX antagonistic effect. The effectiveness varies inversely with the IC50 value.

For test [2], the system named is U 46619-Induced Pulmonary Embolism. The experiment in a line: Preventing the U 46619-induced pulmonary embolism (survival rate of mouse). It counts as in vivo. The following applies: male NMRI mice, lethal U 46619 injected i.v. (tail vein) after 4 hours; for responders at 25 mg/kg: Mus musculus, iv; for Survival Rate of Mouse 1 mg/kg, 4 h in %: 1 mg/kg by stomach tube. How it is done: 2. Preventing the U 46619-Induced Pulmonary Embolism
Male NMRI mice, with a body weight of 25 g. are used. The test substance is suspended in 1% methylcellulose and administered to the experimental animals with the help of a stomach tube. The provocation test consists of injecting the lethal dose (800-1000/μg/kg) of the thromboxane mimetic (U 46619 of the Upjohn Co.) rapidly into the tail vein. The duration of the specific antagonistic effect is tested by pretreating the animals with 25 mg or 1 mg/kg of the different test substances and injecting U 46619 after 4 hours. The survival rate indicates how many of the animals used have survived the injection of the thromboxane mimetic.

Usually pIC50 stands for the IC50 on a negative log10 scale, so that one unit is a factor of ten.

pIC50: −log10 of the molar value. Read-outs that look alike come from different tables or passages of the source.

`O=C(O)C[S+]([O-])CCCCCCNS(=O)(=O)c1ccc(Cl)cc1` (stereo not shown) [Example 5, 9-(4-Chlorobenzenesulphonamido)-3-thianonanoic acid 3-oxide]: the pIC50 in test [1] (5 min) is 5.68. In test [2] (25 mg/kg by stomach tube), this molecule showed a responders at 25 mg/kg of 40%.
In the case of `CC(C)(CCSCCCNS(=O)(=O)c1ccc(Cl)cc1)CC(=O)O` [Example 11.2, 9-(4-Chlorobenzenesulphonamido)-3,3-dimethyl-6-thianonanoic acid], in test [1] (5 min), the pIC50 is 4.00. Also, the responders at 25 mg/kg in test [2] (25 mg/kg by stomach tube) worked out at 80%. The “Survival Rate of Mouse 1 mg/kg, 4 h in %” value in test [2] stood at 0%.
For `O=C(O)CSCCCCCCNS(=O)(=O)c1ccc(Cl)cc1` [Example 4, 9-(4-Chlorobenzenesulphonamido)-3-thianonanoic acid], in test [1] (5 min), the pIC50 is 5.89. This molecule also registered a responders at 25 mg/kg in test [2] (25 mg/kg by stomach tube) of 40%.
As for `O=C(O)CSCCC/C=C\CNS(=O)(=O)c1ccc(Cl)cc1` [Example 7, (Z)-9-(4-Chlorobenzenesulphonamido)-3-thia-7-enenonanoic acid], the negative logarithm of the IC50 (pIC50) in test [1] (5 min) was 5.85. In test [2] (25 mg/kg by stomach tube), this molecule registered a responders at 25 mg/kg of 100%. Besides, the “Survival Rate of Mouse 1 mg/kg, 4 h in %” value in test [2] is on record as 60%.
For the molecule `CC(C)(CCSCCNS(=O)(=O)c1ccc(Cl)cc1)CC(=O)O` [Example 8.3, 8-(4-Chlorobenzenesulphonamido)-3,3-dimethyl-6-thiaoctanoic acid], the negative logarithm of the IC50 (pIC50) in test [1] (5 min) was 5.30. In test [2] (25 mg/kg by stomach tube), the responders at 25 mg/kg was determined as 40%.
Take “9-(4-Chlorobenzenesulphonamido)-3-thianonanoic acid [Example 6]”: the pIC50 in test [1] was 5.47. For the same molecule, in test [2], the “Survival Rate of Mouse 1 mg/kg, 4 h in %” value is 100%. Further, the “Survival Rate of Mouse 25 mg/kg, 4 h in %” value in test [2] (25 mg/kg by stomach tube) was found to be 80%.
`COc1ccc(S(=O)(=O)NCCCCCSC(C)(C)C(=O)O)cc1` [Example 9.2, 8-(4-Methoxybenzenesulphonamido)-2,2-dimethyl-3-thiaoctanoic acid]: the pIC50 in test [1] (5 min) is 4.00. The same molecule yielded a responders at 25 mg/kg in test [2] (25 mg/kg by stomach tube) of 60%. Moreover, the “Survival Rate of Mouse 1 mg/kg, 4 h in %” value in test [2] stood at 20%.
Regarding `CC(C)(CCCSCCCNS(=O)(=O)c1ccc(Cl)cc1)C(=O)O` [Example 11, 9-(4-Chlorobenzenesulphonamido)-2,2-dimethyl-6-thianonanoic acid], the pIC50 in test [1] (5 min) is 4.22. The molecule further showed a responders at 25 mg/kg in test [2] (25 mg/kg by stomach tube) of 80%. The “Survival Rate of Mouse 1 mg/kg, 4 h in %” value in test [2] amounted to 0%.
As to `CC(C)(SCCCCCNS(=O)(=O)c1ccc(Cl)cc1)C(=O)O` [Example 9, 8-(4-Chlorobenzenesulphonamido)-2,2-dimethyl-3-thiaoctanoic acid], the pIC50 in test [1] (5 min) was 5.28. In test [2] (25 mg/kg by stomach tube), this molecule yielded a responders at 25 mg/kg of 40%.
The like results for `CC(C)(CCSCCNS(=O)(=O)c1ccc(Cl)cc1)C(=O)O` [Example 8, 7-(4-Chlorobenzenesulphonamido)-2,2-dimethyl-5-thiaheptanoic acid] were, in that order, 4.89 and 40%.

The record behind these values is patent US4981873A, “Substituted sulphonamides, pharmaceuticals thereof and methods of using them” (Boehringer Mannheim GmbH, priority 1988, dated 1991).
